The target in the test is T1, BRM (Homo sapiens, UniProt P51531).
T1 construct: In-Cell Western Screen of BRM Degradation in SW1573 Cells; endogenous in cells; host or cells: SW1573
The experiment in a line: In-cell Western screen of BRM degradation in SW1573 cells (Dmax and DC50). It counts as cell-based. Particulars: for DC50: degradation of BRM, read-out: BRM DC50; for Dmax: SW1573, read-out: BRM Dmax (%). The method, boiled down:
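Near-infrared imaging on a LI-COR Odyssey (800 and 680 nm channels) quantifies BRM remaining in fixed SW1573 cells. Cells are dosed for 18-20 h at 0.1% final DMSO, and degradation is expressed as Dmax and DC50.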

[1] abbreviates: % degraded, when tested at the top concentration of between 0.3 and 10 μM.

T1 sequence (P51531 whole entry): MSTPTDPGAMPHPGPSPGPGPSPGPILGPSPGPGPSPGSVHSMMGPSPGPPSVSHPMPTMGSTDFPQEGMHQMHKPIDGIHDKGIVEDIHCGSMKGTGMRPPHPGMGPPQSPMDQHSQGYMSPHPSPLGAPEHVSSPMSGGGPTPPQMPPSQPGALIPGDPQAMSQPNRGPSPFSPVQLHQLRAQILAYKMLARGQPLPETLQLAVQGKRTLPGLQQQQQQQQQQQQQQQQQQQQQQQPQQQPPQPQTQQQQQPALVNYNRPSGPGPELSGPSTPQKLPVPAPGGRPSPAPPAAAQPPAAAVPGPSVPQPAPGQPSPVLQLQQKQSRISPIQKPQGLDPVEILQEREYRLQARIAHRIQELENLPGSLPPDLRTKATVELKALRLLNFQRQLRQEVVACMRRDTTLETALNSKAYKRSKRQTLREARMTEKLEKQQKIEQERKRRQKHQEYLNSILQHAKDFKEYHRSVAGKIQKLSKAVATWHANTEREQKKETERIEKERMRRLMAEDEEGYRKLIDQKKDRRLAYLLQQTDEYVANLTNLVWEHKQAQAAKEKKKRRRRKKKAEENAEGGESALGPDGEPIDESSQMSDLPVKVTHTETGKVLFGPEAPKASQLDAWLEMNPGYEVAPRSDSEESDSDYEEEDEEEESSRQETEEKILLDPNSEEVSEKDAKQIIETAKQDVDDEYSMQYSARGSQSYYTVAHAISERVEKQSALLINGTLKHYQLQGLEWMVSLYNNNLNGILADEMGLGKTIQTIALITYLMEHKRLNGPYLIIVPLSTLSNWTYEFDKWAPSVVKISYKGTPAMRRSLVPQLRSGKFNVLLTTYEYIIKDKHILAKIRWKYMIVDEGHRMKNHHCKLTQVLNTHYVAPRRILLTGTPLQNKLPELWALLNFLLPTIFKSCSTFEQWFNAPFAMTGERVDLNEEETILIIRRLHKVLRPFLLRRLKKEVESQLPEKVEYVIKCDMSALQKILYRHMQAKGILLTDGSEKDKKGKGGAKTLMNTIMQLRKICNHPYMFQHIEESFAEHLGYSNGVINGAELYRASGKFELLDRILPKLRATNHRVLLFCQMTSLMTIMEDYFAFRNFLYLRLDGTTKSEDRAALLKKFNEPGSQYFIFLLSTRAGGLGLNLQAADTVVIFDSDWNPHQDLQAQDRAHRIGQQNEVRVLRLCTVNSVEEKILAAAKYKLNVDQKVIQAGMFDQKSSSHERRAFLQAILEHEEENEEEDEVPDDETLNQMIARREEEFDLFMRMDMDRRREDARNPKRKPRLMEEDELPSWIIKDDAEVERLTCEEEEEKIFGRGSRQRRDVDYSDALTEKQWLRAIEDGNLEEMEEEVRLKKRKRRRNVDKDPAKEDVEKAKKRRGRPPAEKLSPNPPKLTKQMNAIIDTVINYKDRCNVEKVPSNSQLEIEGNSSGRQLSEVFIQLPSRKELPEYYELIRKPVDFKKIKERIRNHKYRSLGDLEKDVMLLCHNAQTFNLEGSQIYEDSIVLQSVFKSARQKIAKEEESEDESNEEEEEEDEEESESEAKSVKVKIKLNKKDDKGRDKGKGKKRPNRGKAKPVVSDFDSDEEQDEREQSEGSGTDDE

Regarding `Cc1ncsc1-c1ccc([C@H](C)NC(=O)[C@@H]2C[C@@H](O)CN2C(=O)[C@H](c2cc(N3CCN(CC4CCN(C[C@H]5C[C@H](Oc6cc(N7C8CCC7CN(c7cc(-c9ccccc9O)nnc7N)C8)ccn6)C5)CC4)CC3)no2)C(C)C)cn1` [compound 426, (2S,4R)-1-((2S)-2-(3-(4-((1-(((11,3r)-3-((4-(3-(3-amino-6-(2-hydroxyphenyl)pyridazin-4-yl)-3,8-diazabicyclo[3.2.1]octan-8-yl)pyridin-2-yl)oxy)cyclobutyl)methyl)piperidin-4-yl)methyl)piperazin-1-yl)isoxazol-5-yl)-3-methylbutanoyl)-4-hydroxy-N-((S)-1-(6-(4-methylthiazol-5-yl)pyridin-3-yl)ethyl)pyrrolidine-2-carboxamide], the DC50 was > 30 nM. `Cc1ncsc1-c1ccc([C@H](C)NC(=O)[C@@H]2C[C@@H](O)CN2C(=O)[C@@H](c2cc(N3CCN(CC4CCN(C[C@H]5C[C@H](Oc6cc(N7C8CCC7CN(c7cc(-c9ccccc9O)nnc7N)C8)ccn6)C5)CC4)CC3)no2)C(C)C)cn1` [compound 427, (2S,4R)-1-((2R)-2-(3-(4-((1-(((1r,3r)-3-((4-(3-(3-amino-6-(2-hydroxyphenyl)pyridazin-4-yl)-3,8-diazabicyclo[3.2.1]octan-8-yl)pyridin-2-yl)oxy)cyclobutyl)methyl)piperidin-4-yl)methyl)piperazin-1-yl)isoxazol-5-yl)-3-methylbutanoyl)-4-hydroxy-N-((S)-1-(6-(4-methylthiazol-5-yl)pyridin-3-yl)ethyl)pyrrolidine-2-carboxamide]: the DC50 is < 2.5 nM. Under setting [1], the Dmax was > 75%.

Take `Cc1ncsc1-c1ccc([C@H](C)NC(=O)[C@@H]2C[C@@H](O)CN2C(=O)[C@@H](c2cc(OCCN3CCC(O[C@H]4C[C@H](Oc5cc(/C=C/c6cc(-c7ccccc7O)nnc6N)ccn5)C4)CC3)no2)C(C)C)cc1` [compound 428, (2S,4R)-1-((R)-2-(3-(2-(4-((1r,3R)-3-((4-((E)-2-(3-amino-6-(2-hydroxyphenyl)pyridazin-4-yl)vinyl)pyridin-2-yl)oxy)cyclobutoxy)piperidin-1-yl)ethoxy)isoxazol-5-yl)-3-methylbutanoyl)-4-hydroxy-N-((S)-1-(4-(4-methylthiazol-5-yl)phenyl)ethyl)pyrrolidine-2-carboxamide]: the DC50 is < 2.5 nM. In addition, under setting [1], the Dmax is > 75%. Regarding `Cc1ncsc1-c1ncc([C@H](C)NC(=O)[C@@H]2C[C@@H](O)CN2C(=O)[C@H](c2cc(OCCN3CCC(O[C@H]4C[C@H](Oc5cc(N6C7CCC6CN(c6cc(-c8ccccc8O)nnc6N)C7)ccn5)C4)CC3)no2)C(C)C)cn1` [compound 429, (2S,4R)-1-((2S)-2-(3-(2-(4-((1r,3S)-3-((4-(3-(3-amino-6-(2-hydroxyphenyl)pyridazin-4-yl)-3,8-diazabicyclo[3.2.1]octan-8-yl)pyridin-2-yl)oxy)cyclobutoxy)piperidin-1-yl)ethoxy)isoxazol-5-yl)-3-methylbutanoyl)-4-hydroxy-N-((S)-1-(2-(4-methylthiazol-5-yl)pyrimidin-5-yl)ethyl)pyrrolidine-2-carboxamide], the DC50 is > 30 nM. Consider `Cc1ncsc1-c1ncc([C@H](C)NC(=O)[C@@H]2C[C@@H](O)CN2C(=O)[C@@H](c2cc(OCCN3CCC(O[C@H]4C[C@H](Oc5cc(N6C7CCC6CN(c6cc(-c8ccccc8O)nnc6N)C7)ccn5)C4)CC3)no2)C(C)C)cn1` [compound 430, (2S,4R)-1-((2R)-2-(3-(2-(4-((1r,3R)-3-((4-(3-(3-amino-6-(2-hydroxyphenyl)pyridazin-4-yl)-3,8-diazabicyclo[3.2.1]octan-8-yl)pyridin-2-yl)oxy)cyclobutoxy)piperidin-1-yl)ethoxy)isoxazol-5-yl)-3-methylbutanoyl)-4-hydroxy-N-((S)-1-(2-(4-methylthiazol-5-yl)pyrimidin-5-yl)ethyl)pyrrolidine-2-carboxamide], for which the DC50 lay within 2.5 to 10 nM. In addition, the Dmax under setting [1] is > 75%. The like results for `Cc1cc([C@@H](C(=O)N2C[C@H](O)C[C@H]2C(=O)N[C@@H](C)c2ccc(-c3scnc3C)cc2)[C@@H](C)COCCCCOc2cc(N3C4CCC3CN(c3cc(-c5ccccc5O)nnc3N)C4)ccn2)on1` [compound 431, (2S,4R)-1-((2S,3R)-4-(4-((4-(3-(3-amino-6-(2-hydroxyphenyl)pyridazin-4-yl)-3,8-diazabicyclo[3.2.1]octan-8-yl)pyridin-2-yl)oxy)butoxy)-3-methyl-2-(3-methylisoxazol-5-yl)butanoyl)-4-hydroxy-N-((S)-1-(4-(4-methylthiazol-5-yl)phenyl)ethyl)pyrrolidine-2-carboxamide] were, in that order, < 2.5 nM and > 75%.

`Cc1cc([C@H](C(=O)N2C[C@H](O)C[C@H]2C(=O)N[C@@H](C)c2ccc(-c3scnc3C)cc2)[C@@H](C)COCCCCOc2cc(N3C4CCC3CN(c3cc(-c5ccccc5O)nnc3N)C4)ccn2)on1` [compound 432, (2S,4R)-1-((2R,3R)-4-(4-((4-(3-(3-amino-6-(2-hydroxyphenyl)pyridazin-4-yl)-3,8-diazabicyclo[3.2.1]octan-8-yl)pyridin-2-yl)oxy)butoxy)-3-methyl-2-(3-methylisoxazol-5-yl)butanoyl)-4-hydroxy-N-((S)-1-(4-(4-methylthiazol-5-yl)phenyl)ethyl)pyrrolidine-2-carboxamide]: the DC50 was in the range of 10 to 30 nM. Moreover, under setting [1], the Dmax was > 75%. The like results for `Cc1ncsc1-c1ccc([C@H](C)NC(=O)[C@@H]2C[C@@H](O)CN2C(=O)[C@H](c2cc(N3CCC(CO[C@H]4C[C@H](Oc5cc(N6C7CCC6CN(c6cc(-c8ccccc8O)nnc6N)C7)ccn5)C4)CC3)no2)C(C)C)cc1` [compound 433, (2S,4R)-1-((2S)-2-(3-(4-(((1r,3S)-3-((4-(3-(3-amino-6-(2-hydroxyphenyl)pyridazin-4-yl)-3,8-diazabicyclo[3.2.1]octan-8-yl)pyridin-2-yl)oxy)cyclobutoxy)methyl)piperidin-1-yl)isoxazol-5-yl)-3-methylbutanoyl)-4-hydroxy-N-((S)-1-(4-(4-methylthiazol-5-yl)phenyl)ethyl)pyrrolidine-2-carboxamide] were, in that order, 2.5 to 10 nM and > 75%. For `Cc1ncsc1-c1ccc([C@H](C)NC(=O)[C@@H]2C[C@@H](O)CN2C(=O)[C@@H](c2cc(N3CCC(CO[C@H]4C[C@H](Oc5cc(N6C7CCC6CN(c6cc(-c8ccccc8O)nnc6N)C7)ccn5)C4)CC3)no2)C(C)C)cc1` [compound 434, (2S,4R)-1-((2R)-2-(3-(4-(((1r,3R)-3-((4-(3-(3-amino-6-(2-hydroxyphenyl)pyridazin-4-yl)-3,8-diazabicyclo[3.2.1]octan-8-yl)pyridin-2-yl)oxy)cyclobutoxy)methyl)piperidin-1-yl)isoxazol-5-yl)-3-methylbutanoyl)-4-hydroxy-N-((S)-1-(4-(4-methylthiazol-5-yl)phenyl)ethyl)pyrrolidine-2-carboxamide] the same measures were < 2.5 nM and > 75%. `Cc1ncsc1-c1ccc([C@H](C)NC(=O)[C@@H]2C[C@@H](O)CN2C(=O)[C@H](c2cc(OCCC3(O)CCN(C[C@H]4C[C@H](Oc5cc(N6C7CC[C@@H]6CN(c6cc(-c8ccccc8O)nnc6N)C7)ccn5)C4)CC3)no2)C(C)C)cc1` [compound 435, (2S,4R)-1-((2S)-2-(3-(2-(1-(((1r,3S)-3-((4-(3-(3-amino-6-(2-hydroxyphenyl)pyridazin-4-yl)-3,8-diazabicyclo[3.2.1]octan-8-yl)pyridin-2-yl)oxy)cyclobutyl)methyl)-4-hydroxypiperidin-4-yl)ethoxy)isoxazol-5-yl)-3-methylbutanoyl)-4-hydroxy-N-((S)-1-(4-(4-methylthiazol-5-yl)phenyl)ethyl)pyrrolidine-2-carboxamide]: the DC50 is < 2.5 nM. Under setting [1], the “BRM Dmax (%)” value is on record as “A (A > 75)”. As to `Cc1ncsc1-c1ccc([C@H](C)NC(=O)[C@@H]2C[C@@H](O)CN2C(=O)[C@@H](c2cc(OCCC3(O)CCN(C[C@H]4C[C@H](Oc5cc(N6C7CCC6CN(c6cc(-c8ccccc8O)nnc6N)C7)ccn5)C4)CC3)no2)C(C)C)cc1` [compound 436, (2S,4R)-1-((2R)-2-(3-(2-(1-(((1r,3R)-3-((4-(3-(3-amino-6-(2-hydroxyphenyl)pyridazin-4-yl)-3,8-diazabicyclo[3.2.1]octan-8-yl)pyridin-2-yl)oxy)cyclobutyl)methyl)-4-hydroxypiperidin-4-yl)ethoxy)isoxazol-5-yl)-3-methylbutanoyl)-4-hydroxy-N-((S)-1-(4-(4-methylthiazol-5-yl)phenyl)ethyl)pyrrolidine-2-carboxamide], the DC50 is < 2.5 nM. Also, the Dmax under setting [1] is > 75%. Consider `Cc1nccn1-c1ccc([C@H](C)NC(=O)[C@@H]2C[C@@H](O)CN2C(=O)[C@@H](c2cc(N3CCN(CC4CCN(C[C@H]5C[C@H](Oc6cc(N7C8CCC7CN(c7cc(-c9ccccc9O)nnc7N)C8)ccn6)C5)CC4)CC3)no2)C(C)C)cc1` [compound 437, (2S,4R)-1-((2R)-2-(3-(4-((1-(((1r,3r)-3-((4-(3-(3-amino-6-(2-hydroxyphenyl)pyridazin-4-yl)-3,8-diazabicyclo[3.2.1]octan-8-yl)pyridin-2-yl)oxy)cyclobutyl)methyl)piperidin-4-yl)methyl)piperazin-1-yl)isoxazol-5-yl)-3-methylbutanoyl)-4-hydroxy-N-((S)-1-(4-(2-methyl-1H-imidazol-1-yl)phenyl)ethyl)pyrrolidine-2-carboxamide], for which the DC50 is < 2.5 nM. Moreover, the Dmax under setting [1] is > 75%.

Usually DC50 stands for the midpoint of the concentration-degradation curve. Usually Dmax stands for the greatest extent of degradation seen.

Values taken from US12539292B2, “BRM targeting compounds and associated methods of use” (Arvinas Operations, Inc., priority 2018, dated 2026).
